Data: ChEMBL document CHEMBL4507319 (2021)

Key:
Details in all cases: Compound concentration 1000.0 nM
[1] = target: Atypical kinase COQ8A, mitochondrial (Homo sapiens) (UniProt Q8NI60)
[2] = target: Dual specificity protein kinase CLK4 (Homo sapiens) (UniProt Q9HAZ1)
[3] = target: Ephrin type-A receptor 5 (Homo sapiens) (UniProt P54756)
[4] = target: Serine/threonine-protein kinase Nek10 (Homo sapiens) (UniProt Q6ZWH5)
[5] = system: Epidermal growth factor receptor (Homo sapiens), P00533 [L858R,T790M]
[6] = target: Ribosomal protein S6 kinase alpha-6 (Homo sapiens) (UniProt Q9UK32)
[7] = target: Cyclin-dependent kinase 8 (Homo sapiens) (UniProt P49336)
Sequence of Cyclin-dependent kinase 8 (Homo sapiens) (P49336 whole entry): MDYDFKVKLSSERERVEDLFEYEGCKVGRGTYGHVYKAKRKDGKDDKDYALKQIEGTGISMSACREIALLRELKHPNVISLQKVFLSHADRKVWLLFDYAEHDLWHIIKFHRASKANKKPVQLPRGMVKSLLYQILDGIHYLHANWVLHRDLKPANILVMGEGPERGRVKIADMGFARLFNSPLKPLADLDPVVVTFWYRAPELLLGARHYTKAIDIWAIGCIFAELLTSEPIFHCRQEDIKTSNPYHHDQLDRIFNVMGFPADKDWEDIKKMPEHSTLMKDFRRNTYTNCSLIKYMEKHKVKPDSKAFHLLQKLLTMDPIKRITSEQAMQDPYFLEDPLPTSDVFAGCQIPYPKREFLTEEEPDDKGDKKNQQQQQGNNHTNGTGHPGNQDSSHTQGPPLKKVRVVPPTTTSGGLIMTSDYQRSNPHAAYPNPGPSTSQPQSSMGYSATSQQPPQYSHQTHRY

[8] = target: G protein-coupled receptor kinase 4 (Homo sapiens) (UniProt P32298)
[9] = target: T1, Serine/threonine-protein kinase Chk1 (Homo sapiens) (UniProt O14757)
T1 sequence (whole entry): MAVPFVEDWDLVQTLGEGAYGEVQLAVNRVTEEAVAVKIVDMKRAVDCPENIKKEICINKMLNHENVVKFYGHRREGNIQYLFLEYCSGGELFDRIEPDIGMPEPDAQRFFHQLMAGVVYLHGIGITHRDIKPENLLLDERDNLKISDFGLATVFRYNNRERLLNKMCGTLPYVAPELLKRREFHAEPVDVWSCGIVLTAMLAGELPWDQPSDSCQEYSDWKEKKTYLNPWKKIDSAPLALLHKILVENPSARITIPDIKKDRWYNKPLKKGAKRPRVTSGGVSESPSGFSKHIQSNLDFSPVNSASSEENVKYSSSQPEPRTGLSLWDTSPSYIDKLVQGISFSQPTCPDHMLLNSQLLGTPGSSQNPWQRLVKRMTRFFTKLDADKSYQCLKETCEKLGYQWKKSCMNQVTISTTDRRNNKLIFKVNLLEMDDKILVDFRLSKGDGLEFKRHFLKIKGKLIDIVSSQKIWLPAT

[10] = target: T2, Serine/threonine-protein kinase 3 (Homo sapiens) (UniProt Q13188)
T2 sequence (whole entry): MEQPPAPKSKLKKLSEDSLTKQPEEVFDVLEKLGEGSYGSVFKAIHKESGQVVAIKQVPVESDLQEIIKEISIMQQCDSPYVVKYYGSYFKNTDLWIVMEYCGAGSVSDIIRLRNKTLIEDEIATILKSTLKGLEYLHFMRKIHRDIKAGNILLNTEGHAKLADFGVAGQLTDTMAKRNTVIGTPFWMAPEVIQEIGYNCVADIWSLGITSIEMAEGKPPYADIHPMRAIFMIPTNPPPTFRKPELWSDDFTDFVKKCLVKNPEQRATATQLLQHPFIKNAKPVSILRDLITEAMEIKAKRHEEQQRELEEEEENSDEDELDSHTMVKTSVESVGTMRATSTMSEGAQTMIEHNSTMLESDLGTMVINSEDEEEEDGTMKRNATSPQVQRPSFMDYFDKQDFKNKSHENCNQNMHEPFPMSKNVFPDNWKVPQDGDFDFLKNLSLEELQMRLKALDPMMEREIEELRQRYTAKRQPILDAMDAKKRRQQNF

[11] = target: Dual specificity protein kinase CLK3 (Homo sapiens) (UniProt P49761)
[12] = target: Phosphatidylinositol 5-phosphate 4-kinase type-2 beta (Homo sapiens) (UniProt P78356)
Sequence of Phosphatidylinositol 5-phosphate 4-kinase type-2 beta (Homo sapiens) (P78356 whole entry): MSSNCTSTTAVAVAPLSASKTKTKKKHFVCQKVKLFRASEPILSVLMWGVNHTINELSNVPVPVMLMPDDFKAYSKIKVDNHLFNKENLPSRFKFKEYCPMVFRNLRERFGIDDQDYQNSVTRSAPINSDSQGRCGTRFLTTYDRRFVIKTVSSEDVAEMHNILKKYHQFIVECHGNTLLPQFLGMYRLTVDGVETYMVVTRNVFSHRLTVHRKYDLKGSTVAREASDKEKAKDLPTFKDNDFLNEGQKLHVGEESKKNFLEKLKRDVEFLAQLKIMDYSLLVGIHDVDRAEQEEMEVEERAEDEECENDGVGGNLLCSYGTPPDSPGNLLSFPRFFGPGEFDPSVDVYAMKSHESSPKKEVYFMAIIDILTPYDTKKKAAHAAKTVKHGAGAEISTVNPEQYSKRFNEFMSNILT

[13] = target: Fibroblast growth factor receptor 1 (Homo sapiens) (UniProt P11362)
[14] = target: Wee1-like protein kinase 2 (Homo sapiens) (UniProt P0C1S8)
[15] = target: T3, Dual specificity mitogen-activated protein kinase kinase 7 (Homo sapiens) (UniProt O14733)
T3 sequence (whole entry): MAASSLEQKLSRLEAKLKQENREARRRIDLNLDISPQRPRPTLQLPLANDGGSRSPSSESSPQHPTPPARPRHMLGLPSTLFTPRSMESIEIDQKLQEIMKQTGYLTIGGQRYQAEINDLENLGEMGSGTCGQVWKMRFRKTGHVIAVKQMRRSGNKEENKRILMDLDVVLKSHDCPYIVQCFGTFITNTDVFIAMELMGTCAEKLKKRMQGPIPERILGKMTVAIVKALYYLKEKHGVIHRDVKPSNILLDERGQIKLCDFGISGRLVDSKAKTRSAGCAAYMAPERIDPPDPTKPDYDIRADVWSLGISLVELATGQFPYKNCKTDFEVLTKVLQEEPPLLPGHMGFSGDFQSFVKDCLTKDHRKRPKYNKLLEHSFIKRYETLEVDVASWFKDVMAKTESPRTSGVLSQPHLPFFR

[16] = system: Tyrosine-protein kinase ABL1 (Homo sapiens), P00519 [T315I]
[17] = target: STE20/SPS1-related proline-alanine-rich protein kinase (Homo sapiens) (UniProt Q9UEW8)
[18] = target: Ephrin type-A receptor 6 (Homo sapiens) (UniProt Q9UF33)
[19] = target: Serine/threonine-protein kinase N2 (Homo sapiens) (UniProt Q16513)
Sequence of Serine/threonine-protein kinase N2 (Homo sapiens) (Q16513 whole entry, looked up): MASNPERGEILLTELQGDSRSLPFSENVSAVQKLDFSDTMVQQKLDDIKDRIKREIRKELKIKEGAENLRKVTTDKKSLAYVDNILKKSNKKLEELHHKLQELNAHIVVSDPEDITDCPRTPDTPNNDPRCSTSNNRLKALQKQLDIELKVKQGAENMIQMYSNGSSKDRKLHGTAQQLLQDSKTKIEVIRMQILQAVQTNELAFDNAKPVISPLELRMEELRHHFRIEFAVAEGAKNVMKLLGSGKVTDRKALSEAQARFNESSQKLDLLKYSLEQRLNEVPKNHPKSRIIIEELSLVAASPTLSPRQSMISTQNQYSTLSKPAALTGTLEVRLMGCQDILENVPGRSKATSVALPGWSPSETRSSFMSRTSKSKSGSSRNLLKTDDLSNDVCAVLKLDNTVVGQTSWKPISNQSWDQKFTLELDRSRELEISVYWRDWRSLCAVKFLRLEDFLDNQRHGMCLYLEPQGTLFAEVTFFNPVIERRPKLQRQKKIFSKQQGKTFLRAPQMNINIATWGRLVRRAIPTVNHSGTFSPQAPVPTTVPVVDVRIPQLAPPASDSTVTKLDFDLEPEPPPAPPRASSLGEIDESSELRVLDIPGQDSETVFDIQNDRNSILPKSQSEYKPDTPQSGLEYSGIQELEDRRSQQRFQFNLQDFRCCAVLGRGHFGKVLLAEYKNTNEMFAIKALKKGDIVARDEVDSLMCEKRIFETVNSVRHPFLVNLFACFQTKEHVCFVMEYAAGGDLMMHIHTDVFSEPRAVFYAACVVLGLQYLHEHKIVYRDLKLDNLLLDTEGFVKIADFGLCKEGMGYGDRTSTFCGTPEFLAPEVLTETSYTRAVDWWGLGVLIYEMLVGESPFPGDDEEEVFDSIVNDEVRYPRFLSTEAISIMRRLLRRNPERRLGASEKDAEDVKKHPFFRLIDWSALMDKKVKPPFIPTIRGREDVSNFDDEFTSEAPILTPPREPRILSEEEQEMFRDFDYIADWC

[20] = target: ALK tyrosine kinase receptor (Homo sapiens) (UniProt Q9UM73)
[21] = target: Mitogen-activated protein kinase kinase kinase 15 (Homo sapiens) (UniProt Q6ZN16)
[22] = target: Epithelial discoidin domain-containing receptor 1 (Homo sapiens) (UniProt Q08345)

Sequence of Serine/threonine-protein kinase Nek10 (Homo sapiens) (Q6ZWH5 whole entry): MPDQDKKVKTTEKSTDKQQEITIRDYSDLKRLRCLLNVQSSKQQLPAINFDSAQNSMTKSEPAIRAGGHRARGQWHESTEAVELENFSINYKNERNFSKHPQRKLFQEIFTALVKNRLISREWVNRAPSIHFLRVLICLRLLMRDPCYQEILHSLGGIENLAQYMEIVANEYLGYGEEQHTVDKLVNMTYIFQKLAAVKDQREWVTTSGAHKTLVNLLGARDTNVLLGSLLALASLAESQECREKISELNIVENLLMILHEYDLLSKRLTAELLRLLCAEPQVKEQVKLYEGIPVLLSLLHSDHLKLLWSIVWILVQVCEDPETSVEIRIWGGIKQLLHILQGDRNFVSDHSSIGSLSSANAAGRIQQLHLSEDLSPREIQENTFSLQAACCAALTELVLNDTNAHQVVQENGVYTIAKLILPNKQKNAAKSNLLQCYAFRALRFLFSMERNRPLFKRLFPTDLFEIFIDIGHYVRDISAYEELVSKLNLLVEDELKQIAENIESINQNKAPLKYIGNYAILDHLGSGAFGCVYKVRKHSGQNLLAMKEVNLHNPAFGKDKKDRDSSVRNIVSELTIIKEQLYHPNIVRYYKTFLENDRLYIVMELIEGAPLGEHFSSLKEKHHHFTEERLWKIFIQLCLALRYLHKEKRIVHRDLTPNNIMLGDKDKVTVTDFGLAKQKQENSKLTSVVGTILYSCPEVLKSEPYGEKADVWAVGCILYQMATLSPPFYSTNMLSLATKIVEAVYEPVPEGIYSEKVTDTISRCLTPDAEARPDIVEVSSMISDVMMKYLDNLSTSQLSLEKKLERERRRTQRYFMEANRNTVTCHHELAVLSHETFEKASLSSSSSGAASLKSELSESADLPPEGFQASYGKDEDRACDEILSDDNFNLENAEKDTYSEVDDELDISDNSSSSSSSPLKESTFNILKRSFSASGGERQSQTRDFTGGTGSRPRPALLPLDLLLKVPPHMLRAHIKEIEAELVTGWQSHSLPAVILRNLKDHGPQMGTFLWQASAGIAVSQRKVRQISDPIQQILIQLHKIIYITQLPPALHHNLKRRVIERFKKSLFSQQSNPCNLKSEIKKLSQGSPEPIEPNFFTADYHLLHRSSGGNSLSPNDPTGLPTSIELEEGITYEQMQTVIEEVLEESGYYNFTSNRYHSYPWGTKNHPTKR
Sequence of Ephrin type-A receptor 5 (Homo sapiens) (P54756 whole entry): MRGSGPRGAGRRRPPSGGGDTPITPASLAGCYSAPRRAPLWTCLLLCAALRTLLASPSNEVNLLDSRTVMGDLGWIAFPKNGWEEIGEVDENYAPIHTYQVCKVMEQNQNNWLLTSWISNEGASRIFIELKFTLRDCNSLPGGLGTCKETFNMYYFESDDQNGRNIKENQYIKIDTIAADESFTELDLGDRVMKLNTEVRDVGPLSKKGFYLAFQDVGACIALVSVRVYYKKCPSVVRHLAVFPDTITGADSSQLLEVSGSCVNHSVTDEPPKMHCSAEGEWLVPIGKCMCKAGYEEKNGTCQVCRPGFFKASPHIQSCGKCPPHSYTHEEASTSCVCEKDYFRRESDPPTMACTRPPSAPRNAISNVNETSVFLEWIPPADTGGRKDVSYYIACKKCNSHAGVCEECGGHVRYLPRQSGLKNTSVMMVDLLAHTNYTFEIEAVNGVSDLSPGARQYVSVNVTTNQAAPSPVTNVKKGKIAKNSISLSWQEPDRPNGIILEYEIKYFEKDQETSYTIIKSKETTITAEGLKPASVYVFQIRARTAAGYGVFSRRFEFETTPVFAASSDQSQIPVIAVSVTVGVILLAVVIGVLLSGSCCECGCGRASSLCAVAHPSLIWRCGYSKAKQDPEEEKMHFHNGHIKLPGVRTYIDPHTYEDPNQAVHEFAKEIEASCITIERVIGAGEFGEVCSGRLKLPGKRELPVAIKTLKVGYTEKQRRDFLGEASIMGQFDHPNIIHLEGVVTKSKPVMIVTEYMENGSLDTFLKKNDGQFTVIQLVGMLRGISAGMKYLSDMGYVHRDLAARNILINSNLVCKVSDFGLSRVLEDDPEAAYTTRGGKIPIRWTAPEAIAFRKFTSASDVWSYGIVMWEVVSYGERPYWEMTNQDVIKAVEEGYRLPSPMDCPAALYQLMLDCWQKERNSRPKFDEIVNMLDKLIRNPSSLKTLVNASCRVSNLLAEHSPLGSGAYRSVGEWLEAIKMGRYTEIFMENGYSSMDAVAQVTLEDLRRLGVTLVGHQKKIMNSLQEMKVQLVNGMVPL
Sequence of Dual specificity protein kinase CLK4 (Homo sapiens) (Q9HAZ1 whole entry, looked up): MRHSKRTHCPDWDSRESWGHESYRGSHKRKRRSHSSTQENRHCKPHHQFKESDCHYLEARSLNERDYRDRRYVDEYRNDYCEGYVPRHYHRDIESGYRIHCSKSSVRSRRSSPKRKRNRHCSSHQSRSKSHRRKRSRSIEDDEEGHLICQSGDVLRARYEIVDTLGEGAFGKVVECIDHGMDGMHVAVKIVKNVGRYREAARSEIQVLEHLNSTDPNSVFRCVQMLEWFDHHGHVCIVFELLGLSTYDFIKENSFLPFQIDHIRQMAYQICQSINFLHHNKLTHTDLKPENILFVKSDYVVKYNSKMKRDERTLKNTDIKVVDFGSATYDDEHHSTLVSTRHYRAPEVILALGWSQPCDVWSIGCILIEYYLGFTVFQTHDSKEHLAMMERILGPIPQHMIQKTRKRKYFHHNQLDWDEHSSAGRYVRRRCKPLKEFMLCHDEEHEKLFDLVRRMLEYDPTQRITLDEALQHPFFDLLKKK
Sequence of Atypical kinase COQ8A, mitochondrial (Homo sapiens) (Q8NI60 163-647 limits assumed): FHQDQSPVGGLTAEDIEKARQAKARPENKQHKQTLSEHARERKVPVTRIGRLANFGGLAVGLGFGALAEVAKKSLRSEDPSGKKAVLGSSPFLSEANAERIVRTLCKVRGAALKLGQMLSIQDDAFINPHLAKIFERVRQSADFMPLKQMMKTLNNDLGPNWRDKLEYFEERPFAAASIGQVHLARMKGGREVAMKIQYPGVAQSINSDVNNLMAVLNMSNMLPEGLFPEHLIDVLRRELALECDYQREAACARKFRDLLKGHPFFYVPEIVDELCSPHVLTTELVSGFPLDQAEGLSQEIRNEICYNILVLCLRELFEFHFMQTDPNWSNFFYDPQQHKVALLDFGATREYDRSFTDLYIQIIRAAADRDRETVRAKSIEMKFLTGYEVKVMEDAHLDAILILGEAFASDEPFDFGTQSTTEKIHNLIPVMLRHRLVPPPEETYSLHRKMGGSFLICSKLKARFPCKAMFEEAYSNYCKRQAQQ

SMILES	residual activity [1] [%]	residual activity [2] [%]	residual activity [3] [%]	residual activity [4] [%]	residual activity [5] [%]	residual activity [6] [%]	residual activity [7] [%]	residual activity [8] [%]	residual activity [9] [%]	residual activity [10] [%]	residual activity [11] [%]	residual activity [12] [%]	residual activity [13] [%]	residual activity [14] [%]	residual activity [15] [%]	residual activity [16] [%]	residual activity [17] [%]	residual activity [18] [%]	residual activity [19] [%]	residual activity [20] [%]	further results
CC1=C(C#N)C(c2ccc3c(c2)c(NC(=O)c2ccccc2C)nn3C)C(C#N)=C(C)N1 [BAY-974]	100	76	77	90	93	100	97	100	81	100	94	83	97	100	65	97	92	89	100	100	residual activity [21]: 96%; residual activity [22]: 74%
CCc1ccccc1C(=O)Nc1n[nH]c2c(C)c(F)c(C3C(C#N)=C(C)N(C)C(C)=C3C#N)cc12 [BAY-3827]	84	100	87	100	97	2.9	71	100	91	80	100	91	97	82	100	72	100	57	100	98	residual activity [21]: 96%; residual activity [22]: 48%
